US10626094B2 (La Jolla Institute of Allergy & Immunology, priority 2014, dated 2020)

Target: LMPTP-A (Low Molecular Weight Protein Tyrosine Phosphatase-A) enzyme (Homo sapiens (Human), UniProt P24666)
Assay: LMPTP primary screening / LMPTP (OMFP) enzyme inhibition assay, fluorescence intensity
Format: biochemical
Conditions: LMPTP-A, OMFP substrate, method of Example 2; read-out: IC50
Outline: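 Single-concentration screen, test compounds 20 μM final, […]. Enzyme (0.625 nM) and OMFP (400 μM) react 50 min at room temp, dark, in Bis-Tris buffer pH 6.0 containing DTT 1 mM and Triton X-100 0.01%. Read-out: fluorescence intensity.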

Chain of LMPTP-A (Low Molecular Weight Protein Tyrosine Phosphatase-A) enzyme (P24666 whole entry): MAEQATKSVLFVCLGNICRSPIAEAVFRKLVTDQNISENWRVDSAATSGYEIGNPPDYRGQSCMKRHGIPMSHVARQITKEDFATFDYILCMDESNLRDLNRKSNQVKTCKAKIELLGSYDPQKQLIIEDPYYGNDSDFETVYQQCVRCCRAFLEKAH

| IC50 | Compound |
| --- | --- |
| 801 to 5000 nM | COc1ccc(-c2cc(Nc3ccc(CN(C)C)cc3)c3ccccc3n2)cc1 [Compound I26, [(4-{[2-(4-methoxyphenyl)(4-quinolyl)]amino}phenyl)methyl]dimethylamine] |
| 801 to 5000 nM | c1csc(-c2cc(NCCCN3CCCCC3)c3ccccc3n2)c1 [Compound G16, (3-Piperidin-1-yl-propyl)-(2-thiophen-2-yl-quinolin-4-yl)-amine] |
| 200 to 800 nM | O=C(NCCN1CCCCC1)c1ccc(-c2cc(NCCCN3CCCCC3)c3ccccc3n2)cc1 [Compound I191] |
| 801 to 5000 nM | O=C(NC1CCCCC1)c1ccc(-c2cc(NCCCN3CCCCC3)c3ccccc3n2)cc1 [Compound I230] |
| 801 to 5000 nM | O=C(O)CNC(=O)c1ccc(-c2cc(NCCCN3CCCCC3)c3ccccc3n2)cc1 [Compound I68] |
| 801 to 5000 nM | Fc1ccc(-c2cc(NCCCN3CCCCC3)c3ccccc3n2)cc1 [Compound G8, [2-(4-Fluoro-phenyl)-quinolin-4-yl]-(3-piperidin-1-yl-propyl)-amine] |
| 801 to 5000 nM | COc1ccc(-c2cc(Nc3cccc(Cc4nn[nH]n4)c3)c3ccccc3n2)cc1 [Compound I27, [2-(4-methoxyphenyl)(4-quinolyl)][3-(2H-1,2,3,4-tetraazol-5-ylmethyl)phenyl]amine] |
| 801 to 5000 nM | CC(C)CNC(=O)c1ccc(-c2cc(NCCCN3CCCCC3)c3ccccc3n2)cc1 [Compound I226] |
| 801 to 5000 nM | COc1ccc(-c2cc(Nc3cccc(N(C)C)c3)c3ccccc3n2)cc1 [Compound I25, (3-{[2-(4-methoxyphenyl)(4-quinolyl)]amino}phenyl)dimethylamine] |
| 801 to 5000 nM | COc1ccc(-c2cc(NCCCN3CCCCC3)c3c(n2)CCCC3)cc1 [Compound I208] |
| 801 to 5000 nM | O=C(NCC1CCCO1)c1ccc(-c2cc(NCCCN3CCCCC3)c3ccccc3n2)cc1 (stereo not drawn) [Compound I64] |
| 801 to 5000 nM | COc1ccc(-c2cc(Nc3ccc(F)c(Cl)c3)c3ccccc3n2)cc1 [Compound G49, (3-chloro-4-fluorophenyl)[2-(4-methoxyphenyl)(4-quinolyl)]amine] |
| 200 to 800 nM | NC(=O)c1ccc(-c2cc(NCCCN3CCCCC3)c3ccccc3n2)c(F)c1 [Compound I252] |
| 801 to 5000 nM | CC(=O)OCc1cccc(-c2cc(NCCCN3CCCCC3)c3ccccc3n2)c1 [Compound I79, 3-{4-[(3-piperidylpropyl)amino]-2-quinolyl}phenyl)methyl acetate] |
| > 5000 nM | COc1ccc(-c2cc(Nc3cccc4cccnc34)c3ccccc3n2)cc1 [Compound G69] |
| > 5000 nM | CN(C)c1cc(-c2cnn(C)c2)nc2ccccc12 [Compound G19, Dimethyl[2-(1-methylpyrazol-4-yl)(4-quinolyl)]amine] |
| 801 to 5000 nM | c1ccc2c(NCCCN3CCCCC3)cc(-c3ccc(OC4CCCCO4)cc3)nc2c1 (stereo not drawn) [Compound I1I3, [2-(4-(2H-3,4,5,6-tetrahydropyran-2-yloxy)phenyl)(4-quinolyl)](3-piperidylpropyl)amine] |
| 200 to 800 nM | O=C(NCCc1ccncc1)c1ccc(-c2cc(NCCCN3CCCCC3)c3ccccc3n2)cc1 [Compound I189] |
| 801 to 5000 nM | CSc1cncc(-c2cc(NCCCN3CCCCC3)c3ccccc3n2)c1 [Compound I92] |

| IC50 | Compound |
| --- | --- |
| 801 to 5000 nM | CS(=O)(=O)c1ccc(-c2cc(NCCCN3CCCCC3)c3ccccc3n2)c(C(F)(F)F)c1 [Compound I121] |
| 801 to 5000 nM | Cc1cc(-c2cc(NCCCN3CCCCC3)c3ccccc3n2)cnc1C#N [Compound I83] |
| 801 to 5000 nM | COc1ccc(-c2cc(Nc3cccc(CN(C)C)c3)c3ccccc3n2)cc1 [Compound I39, [(3-{[2-(4-methoxyphenyl)(4-quinolyl)]amino}phenyl)methyl]dimethylamine] |
| 801 to 5000 nM | Clc1cc(-c2cc(NCCCN3CCCCC3)c3ccccc3n2)ccn1 [Compound I102] |
| 801 to 5000 nM | O=C(c1ccc(-c2cc(NCCCN3CCCCC3)c3ccccc3n2)cc1)N1CCCC1 [Compound I84, 4-{4-[(3-piperidylpropyl)amino](2-quinolyl)}phenyl pyrrolidinyl ketone] |
| > 5000 nM | [2-(2,6-dichlorophenyl)(4-quinolyl)](3-piperidylpropyl)amine [Compound I100] |
| > 5000 nM | CN1CCCC1CCNc1cc(-c2ccc(C(F)(F)F)cc2C(F)(F)F)nc2ccccc12 (stereo not drawn) [Compound I53, {2-[2,4-bis(trifluoromethyl)phenyl](4-quinolyl)}[2-(1-methylpyrrolidin-2-yl)ethyl]amine] |
| 801 to 5000 nM | COc1ccc(CNc2cc(-c3ccc(OC)cc3)nc3ccccc23)cc1 [Compound G79, [2-(4-methoxyphenyl)(4-quinolyl)][(4-methoxyphenyl)methyl]amine] |
| 200 to 800 nM | COc1ccc(-c2cc(Nc3cccc(C#N)c3)c3ccccc3n2)cc1 [Compound G38, 3-[2-(4-Methoxy-phenyl)-quinolin-4-ylamino]-benzonitrile] |
| > 5000 nM | COc1ccc(-c2cc(NCCCN3CCCCC3)c3cc(C)ccc3n2)cc1 [Compound G24, [2-(4-methoxy-phenyl)-6-methyl-quinolin-4-yl]-(3-piperidin-1-yl-propyl)-amine] |
| > 5000 nM | CCN1CCN(Cc2ccc(CNc3cc(-c4ccc(C(N)=O)cc4)nc4ccccc34)cc2)CC1 [Compound I214, 4-{4-[({4-[(4-ethylpiperazinyl)methyl]phenyl}methyl)amino]-2-quinolyl}benzamide] |
| 801 to 5000 nM | COc1ccc(-c2cc(NCCCc3cccnc3)c3ccccc3n2)cc1 [Compound I203] |
| 801 to 5000 nM | Fc1cccc(-c2cc(NCCCN3CCCCC3)c3ccccc3n2)c1C(F)(F)F [Compound I223] |
| 801 to 5000 nM | COc1ccc(-c2cc(Nc3ccnnc3)c3ccccc3n2)cc1 [Compound G71, [2-(4-methoxyphenyl)(4-quinolyl)]pyridazin-4-ylamine] |
| 801 to 5000 nM | Fc1cc(F)cc(-c2cc(NCCCN3CCCCC3)c3ccccc3n2)c1 [Compound I85] |
| 801 to 5000 nM | c1ccc2c(NCCCN3CCCCC3)cc(-c3ccc4c(c3)OCO4)nc2c1 [Compound I167, (2-(2H-benzo[3,4-d]1,3-dioxolen-5-yl)(4-quinolyl))(3-piperidylpropyl)amine] |
| 801 to 5000 nM | CC(=O)Nc1ccc(-c2cc(NCCCN3CCCCC3)c3ccccc3n2)cc1 [Compound I117] |
| 801 to 5000 nM | Cc1ccccc1-c1cc(NCCCN2CCCCC2)c2ccccc2n1 [Compound I159] |
| 801 to 5000 nM | COc1ccc(-c2cc(NCc3ccc(C(F)(F)F)cc3)c3ccccc3n2)cc1 [Compound G81, [2-(4-methoxyphenyl)(4-quinolyl)]{[4-(trifluoromethyl)phenyl]methyl}amine] |

| IC50 | Compound |
| --- | --- |
| 801 to 5000 nM | Fc1c(Cl)cccc1-c1cc(NCCCN2CCCCC2)c2ccccc2n1 [Compound I238] |
| 801 to 5000 nM | c1ccc2c(NCCCN3CCCCC3)cc(-c3ccc4c(c3)OCCO4)nc2c1 [Compound I125] |
| 801 to 5000 nM | Fc1ccc(Nc2cc(-c3ccccc3C(F)(F)F)nc3ccccc23)cc1 [Compound G34, (4-Fluoro-phenyl)-[2-(2-trifluoromethyl-phenyl)-quinolin-4-yl]-amine] |
| 200 to 800 nM | O=C(c1ccc(-c2cc(NCCCN3CCCCC3)c3ccccc3n2)cc1)N1CCOCC1 [Compound I234] |
| 801 to 5000 nM | c1ccc2c(NCCCN3CCCCC3)cc(-c3ccc(-c4nn[nH]n4)cc3)nc2c1 [Compound I205] |
| > 5000 nM | COc1ccc(-c2cc(Nc3cccc(C(F)(F)F)c3)c3ccccc3n2)cc1 [Compound G37, [2-(4-Methoxy-phenyl)-quinolin-4-yl]-(3-trifluoromethyl-phenyl)-amine] |
| 200 to 800 nM | O=S(=O)(c1ccc(-c2cc(NCCCN3CCCCC3)c3ccccc3n2)cc1)N1CCSCC1 [Compound I235, 4-[(4-{4-[(3-piperidylpropyl)amino]-2-quinolyl}phenyl)sulfonyl]-1,4-thiazaperhydroine] |
| 801 to 5000 nM | (3-piperidylpropyl)(2-(3-pyridyl)(4-quinolyl))amine [Compound I147] |
| 200 to 800 nM | COc1ccc(-c2cc(Nc3cccc(CN4CCSCC4)c3)c3ccccc3n2)cc1 [Compound G56, [2-(4-methoxyphenyl)(4-quinolyl)][3-(1,4-thiazaperhydroin-4-ylmethyl)phenyl]amine] |
| > 5000 nM | CN(C)c1cc(-c2ccco2)nc2ccccc12 [Compound G13, (2-Furan-2-yl-quinolin-4-yl)-dimethyl-amine] |
| 801 to 5000 nM | Fc1cc(Cl)ccc1-c1cc(Nc2cccc(CN3CCCC3)c2)c2ccccc2n1 [Compound I10] |
| 801 to 5000 nM | COc1ccc(-c2cc(NCCCc3ccncc3)c3ccccc3n2)cc1 [Compound I200, [2-(4-methoxyphenyl)(4-quinolyl)](3-(4-pyridyl)propyl)amine] |
| > 5000 nM | CN(C)Cc1cccc(Nc2cc(-c3ccc(C(N)=O)cc3)nc3ccccc23)c1 [Compound I4, 4-[4-({3-[(dimethylamino)methyl]phenyl}amino)-2-quinolyl]benzamide] |
| 801 to 5000 nM | Cc1ccc(C)c(-c2cc(NCCCN3CCCCC3)c3ccccc3n2)c1 [Compound I107] |
| 801 to 5000 nM | FC(F)(F)c1ccc(Oc2ccc(-c3cc(NCCCN4CCCCC4)c4ccccc4n3)cn2)cc1 [Compound I87] |
| > 5000 nM | COc1ccc(-c2cc(Nc3ccccc3CC3CCNCC3)c3ccccc3n2)cc1 [Compound I38, [2-(4-methoxyphenyl)(4-quinolyl)][2-(4-piperidylmethyl)phenyl]amine] |
| > 5000 nM | CN(C)c1ccc(-c2cc(N(C)C)c3ccccc3n2)cc1 [Compound G11, [2-(4-Dimethylamino-phenyl)-quinolin-4-yl]-dimethyl-amine] |
| > 5000 nM | c1ccc(-c2nc(NCCN3CCOCC3)c3ccccc3n2)cc1 [Compound I184, (2-morpholin-4-ylethyl)(2-phenylquinazolin-4-yl)amine] |

| Compound | IC50 |
| --- | --- |
| COc1ccc(-c2cc(NCCCN3CCCCC3)c3cc([N+](=O)[O-])ccc3n2)cc1 [Compound G29, [2-(4-Methoxy-phenyl)-6-nitro-quinolin-4-yl]-(3-piperidin-1-yl-propyl)-amine] | > 5000 nM |
